Read-outs that look alike come from different tables or passages of the source.
Molecular target: T1, PPME (Homo sapiens, UniProt Q9Y570)
T1 construct: made in house; host or cells: E. coli BL21(DE3)
T1 sequence (Q9Y570 1-386): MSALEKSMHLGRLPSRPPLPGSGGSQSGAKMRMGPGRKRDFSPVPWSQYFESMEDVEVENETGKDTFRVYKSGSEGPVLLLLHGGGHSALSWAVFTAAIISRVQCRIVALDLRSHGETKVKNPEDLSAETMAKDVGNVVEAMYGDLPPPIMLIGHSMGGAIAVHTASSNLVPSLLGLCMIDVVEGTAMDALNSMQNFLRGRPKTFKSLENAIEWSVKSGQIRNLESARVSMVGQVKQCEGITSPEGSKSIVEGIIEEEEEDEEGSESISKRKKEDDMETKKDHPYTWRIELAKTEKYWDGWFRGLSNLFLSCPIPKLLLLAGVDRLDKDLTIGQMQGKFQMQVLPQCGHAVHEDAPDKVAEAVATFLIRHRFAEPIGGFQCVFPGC
Test: PP2A methylesterase (PPME) inhibition, filter paper method
Assay type: biochemical
Experimental: This example provides a method by which the rate of demethylation of methyl PP2A can be determined. For the composition of ^3H-labeled methyl-PP2A, 100 μl reaction mixtures consisting of purified PP2A AC dimers (prepared as described in Example 3), purified PPMT (prepared as described in Example 1), 50 mM MOPS buffer pH 7.2, 5 mM DTT, 1 mM EDTA, 1 mg/ml BSA and 10 μl ^3H-SAM were incubated at 37° C. for 30 min and loaded onto a desalting column pre-equilibrated in 50 mM MOPS-Na pH 7.2, 1 mM DTT, 1 mM EDTA, 200 mM NaCl and 5% glycerol. The sample was eluted with the same buffer, 50 μl fractions were collected, and each aliquot analyzed by scintillation counting. Fractions containing ^3H-methyl PP2A were collected and stored at 4° C.
The following assay (see Lee, J. et al., Proc. Nat'l Acad. Sci. U.S.A. 93(12):[…] (1996)) is referred to subsequently as the “filter paper method”. The test compound was incubated with purified PPME (prepared as described in Example 2) and purified ^3H-methyl-labeled PP2A (the preparation of which is described in the preceding paragraph) in Buffer C (50 mM MOPS, 1 mM EDTA, 1 mM DTT buffer at pH 7.2, as in Example 3). After incubation at 37° C. for a fixed time (typically 10 minutes), the reaction mixture was spotted onto a 1 cm^2 piece of Whatman 3 mM filter paper. The filter paper was immediately dipped in 10% ice-cold TCA, and then kept on ice in a plastic tray. After all reactions were run, the filter papers were washed at 4° C. with stirring in a large excess of 10% TCA, similarly washed twice at 4° C. with 100% methanol, and then vacuum dried at 45° C. for 1 hr to remove the ^3H-methanol produced by PP2A demethylation. The dried filter papers then were assayed for radioactivity by submerging them in scintillation fluid and performing scintillation counting. This procedure is easily adapted to a 96-well format to allow high-throughput screening (described below).
As used herein to refer to assay results, the term “inhibition activity” refers to the following relationship: Inhibition activity=1−(amount of methyl-PP2A carboxyl demethylated with inhibitor)/(amount of methyl-PP2A carboxyl […] without inhibitor).

[1] = PPME at 85 nM, IC50 higher than the value tested, read-out: IC50

Row | IC50 [1] | Compound | also measured
1 | > 1000 µM | O=C(/C=C/c1ccc(O)c(O)c1)O[C@@H]1C[C@](O)(C(=O)O)C[C@@H](O)[C@H]1O [CGA, Chlorogenic acid] | –
2 | > 1000 µM | O=C(O)/C=C/c1ccc(O)c(O)c1 [DHCA, 3,4-Dihdroxycinnamic acid] | –
3 | > 10000 µM | O=C(O)[C@]1(O)C[C@@H](O)[C@@H](O)[C@H](O)C1 [QA, D(−)-Quinic acid] | –

Second part, the compound before the results:

Row | Compound | IC50 [1] | also measured
4 | Cc1c(C)c2c(c(C)c1O)CCC(C)(CCCC(C)CCCC(C)CCCC(C)C)O2 (racemic) [#12-1, DL-α-tocopherol] | – | IC50 (PPME at 85 nM, read-out: IC50): 35 µM
5 | COc1cc(/C=C/C(=O)CC(=O)/C=C/c2ccc(O)c(OC)c2)ccc1O [CCM-L, Curcumin] | – | IC50 (PPME at 85 nM, read-out: IC50): 771 µM
6 | COc1cc(C=CC(=O)O)ccc1O [HMCA, 4-Hydroxy-3-methoxycinnamic acid] | > 1000 µM | –
7 | Cn1c(=O)c2c(ncn2C)n(C)c1=O [caffeine] | – | IC50 (read-out: concentration required for 50% inhibition of PPME): > 440 µM

Reference: US7923041B2, “Compositions and methods for enhancing cognitive function” (Signum Biosciences, Inc., priority 2005, dated 2011)
